Laboratory results as given in ChEMBL document CHEMBL4507259 (2021).

Legend:
[1] = biological target: Adenosine receptor A3 (Homo sapiens) (UniProt P0DMS8); assay: A3 (h) CEREP ligand profiling; settings: filed as agonist, Compound concentration 10.0 uM
[2] = biological target: Prostaglandin G/H synthase 2 (Homo sapiens) (UniProt P35354); assay: COX2(h) CEREP ligand profiling; settings: Compound concentration 10.0 uM
[3] = biological target: Histone acetyltransferase KAT6B (Homo sapiens) (UniProt Q8WYB5); assay: MYST4 (HAT) CEREP ligand profiling; settings: Compound concentration 10.0 uM
[4] = biological target: Histone acetyltransferase KAT2B (Homo sapiens) (UniProt Q92831); assay: PCAF (HAT) CEREP ligand profiling; settings: Compound concentration 10.0 uM
[5] = biological target: Histone acetyltransferase KAT5 (Homo sapiens) (UniProt Q92993); assay: TIP60 (HAT) CEREP ligand profiling; settings: Compound concentration 10.0 uM
[6] = test system: NCI-H23; assay: H23 cell line Proliferation assay; assay type: functional, Homo sapiens; settings: Compound concentration 10 uM; time 3 day
[7] = test system: HCC4006; assay: HCC4006 cell line Proliferation assay; assay type: functional, Homo sapiens; settings: Compound concentration 10 uM; time 3 day
[8] = test system: NCI-H2444; assay: H2444 cell line Proliferation assay; assay type: functional, Homo sapiens; settings: Compound concentration 10 uM; time 3 day
[9] = test system: NCI-H838; assay: H838 cell line Proliferation assay; assay type: functional, Homo sapiens; settings: Compound concentration 10 uM; time 3 day
[10] = test system: NCI-H661; assay: H661 cell line Proliferation assay; assay type: functional, Homo sapiens; settings: Compound concentration 10 uM; time 3 day
[11] = test system: LNCaP-Clone-FGC; assay: LnCaP -FGC cell line Proliferation assay; assay type: functional, Homo sapiens; settings: Compound concentration 10 uM; time 5 day
[12] = test system: SK-MEL-5; assay: SKMEL5 cell line Proliferation assay; assay type: functional, Homo sapiens; settings: Compound concentration 10 uM; time 5 day
[13] = test system: HT-144; assay: HT-144 cell line Proliferation assay; assay type: functional, Homo sapiens; settings: Compound concentration 10 uM; time 5 day
[14] = test system: Hs 695T; assay: Hs695T cell line Proliferation assay; assay type: functional, Homo sapiens; settings: Compound concentration 10 uM; time 5 day
[15] = test system: SK-MEL-24; assay: SKMEL24 cell line Proliferation assay; assay type: functional, Homo sapiens; settings: Compound concentration 10 uM; time 5 day
[16] = test system: NCI-H211; assay: H211 cell line Proliferation assay; assay type: functional, Homo sapiens; settings: Compound concentration 10 uM; time 4 day
[17] = test system: NCI-H510A; assay: H510A cell line Proliferation assay; assay type: functional, Homo sapiens; settings: Compound concentration 10 uM; time 4 day
[18] = test system: NCI-H128; assay: H128 cell line Proliferation assay; assay type: functional, Homo sapiens; settings: Compound concentration 10 uM; time 4 day
[19] = test system: NCI-H187; assay: H187 cell line Proliferation assay; assay type: functional, Homo sapiens; settings: Compound concentration 10 uM; time 4 day
[20] = test system: NCI-H2081; assay: H2081 cell line Proliferation assay; assay type: functional, Homo sapiens; settings: Compound concentration 10 uM; time 4 day
[21] = test system: EMT6; assay: EMT6 (mouse) cell line Proliferation assay; assay type: functional; settings: Compound concentration 10 uM; time 5 day
[22] = test system: HCC1937; assay: HCC1937 cell line Proliferation assay; assay type: functional, Homo sapiens; settings: Compound concentration 10 uM; time 5 day
[23] = test system: MDA-MB-436; assay: MDA_MB_436 cell line Proliferation assay; assay type: functional, Homo sapiens; settings: Compound concentration 10 uM; time 5 day
[24] = test system: HCC1395; assay: HCC1395 cell line Proliferation assay; assay type: functional, Homo sapiens; settings: Compound concentration 10 uM; time 5 day
[25] = test system: CAL-120; assay: CAL_120 cell line Proliferation assay; assay type: functional, Homo sapiens; settings: Compound concentration 10 uM; time 5 day
[26] = test system: Granta-519; assay: Granta 519 cell line Proliferation assay; assay type: functional, Homo sapiens; settings: Compound concentration 10 uM; time 3 day
[27] = test system: MM1.S; assay: MM1.s cell line Proliferation assay; assay type: functional, Homo sapiens; settings: Compound concentration 10 uM; time 3 day
[28] = test system: L-363; assay: L-363 cell line Proliferation assay; assay type: functional, Homo sapiens; settings: Compound concentration 10 uM; time 3 day
[29] = test system: AMO1; assay: AMO-1 cell line Proliferation assay; assay type: functional, Homo sapiens; settings: Compound concentration 10 uM; time 3 day
[30] = test system: Toledo; assay: Toledo cell line Proliferation assay; assay type: functional, Homo sapiens; settings: Compound concentration 10 uM; time 3 day
[31] = test system: NU-DHL-1; assay: NuDHL1 cell line Proliferation assay; assay type: functional, Homo sapiens; settings: Compound concentration 10 uM; time 3 day
[32] = test system: Mino; assay: Mino cell line Proliferation assay; assay type: functional, Homo sapiens; settings: Compound concentration 10 uM; time 3 day
[33] = test system: U-2973; assay: U2973 cell line Proliferation assay; assay type: functional, Homo sapiens; settings: Compound concentration 10 uM; time 3 day
[34] = test system: SU-DHL-16; assay: SuDHL16 cell line Proliferation assay; assay type: functional, Homo sapiens; settings: Compound concentration 10 uM; time 3 day
[35] = test system: SU-DHL-5; assay: SuDHL5 cell line Proliferation assay; assay type: functional, Homo sapiens; settings: Compound concentration 10 uM; time 3 day
[36] = test system: Pfeiffer; assay: Pfeiffer cell line Proliferation assay; assay type: functional, Homo sapiens; settings: Compound concentration 10 uM; time 3 day
[37] = test system: Ramos; assay: Ramos cell line Proliferation assay; assay type: functional, Homo sapiens; settings: Compound concentration 10 uM; time 3 day
[38] = test system: SC1; assay: Sc1 cell line Proliferation assay; assay type: functional, Homo sapiens; settings: Compound concentration 10 uM; time 3 day
[39] = test system: OCI-Ly7; assay: OCI Ly7 cell line Proliferation assay; assay type: functional, Homo sapiens; settings: Compound concentration 10 uM; time 3 day
[40] = test system: U2932; assay: U2932 cell line Proliferation assay; assay type: functional, Homo sapiens; settings: Compound concentration 10 uM; time 3 day
[41] = test system: Farage; assay: Farage cell line Proliferation assay; assay type: functional, Homo sapiens; settings: Compound concentration 10 uM; time 3 day
[42] = test system: MOLM-13; assay: MOLM-13 cell line Proliferation assay; assay type: functional, Homo sapiens; settings: Compound concentration 10 uM; time 3 day
[43] = test system: SKM-1; assay: SKM-1 cell line Proliferation assay; assay type: functional, Homo sapiens; settings: Compound concentration 10 uM; time 3 day
[44] = test system: OCI-AML2; assay: OCI-AML2 cell line Proliferation assay; assay type: functional, Homo sapiens; settings: Compound concentration 10 uM; time 3 day
[45] = test system: OCI-AML-5; assay: OCI-AML5 cell line Proliferation assay; assay type: functional, Homo sapiens; settings: Compound concentration 10 uM; time 3 day
[46] = test system: HL-60; assay: HL-60 cell line Proliferation assay; assay type: functional, Homo sapiens; settings: Compound concentration 10 uM; time 3 day
[47] = test system: EOL1; assay: EOL-1 cell line Proliferation assay; assay type: functional, Homo sapiens; settings: Compound concentration 10 uM; time 3 day
[48] = biological target: T1, 5-hydroxytryptamine receptor 1A (Homo sapiens) (UniProt P08908); assay: 5-HT1A (h) CEREP ligand profiling; settings: filed as agonist, Compound concentration 10.0 uM
T1 sequence (whole entry): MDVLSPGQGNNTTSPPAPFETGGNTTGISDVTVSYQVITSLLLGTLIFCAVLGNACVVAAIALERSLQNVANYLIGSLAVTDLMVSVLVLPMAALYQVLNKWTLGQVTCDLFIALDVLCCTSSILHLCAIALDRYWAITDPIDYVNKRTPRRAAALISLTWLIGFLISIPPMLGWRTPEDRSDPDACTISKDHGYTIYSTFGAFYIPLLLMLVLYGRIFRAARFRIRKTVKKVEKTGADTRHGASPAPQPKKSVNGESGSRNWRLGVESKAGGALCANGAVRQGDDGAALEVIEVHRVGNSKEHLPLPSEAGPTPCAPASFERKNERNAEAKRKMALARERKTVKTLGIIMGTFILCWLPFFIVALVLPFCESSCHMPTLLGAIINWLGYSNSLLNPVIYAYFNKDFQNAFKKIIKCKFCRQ

[49] = biological target: Adenosine receptor A2b (Homo sapiens) (UniProt P29275); assay: A2B (h) CEREP ligand profiling; settings: filed as antagonist, Compound concentration 10.0 uM
[50] = biological target: GABA-A receptor; alpha-1/beta-2/gamma-2 (Homo sapiens) (UniProt P14867+P47870+P18507); assay: GABAA1 (h) (alpha 1,beta 2,gamma 2) CEREP ligand profiling; assay type: protein-complex assay; settings: filed as agonist, Compound concentration 10.0 uM
[51] = biological target: cGMP-inhibited 3',5'-cyclic phosphodiesterase 3A (Homo sapiens) (UniProt Q14432); assay: PDE3A (h) CEREP ligand profiling; settings: Compound concentration 10.0 uM
[52] = biological target: Activin receptor type-1 (Homo sapiens) (UniProt Q04771); settings: Compound concentration 1000.0 nM
[53] = biological target: Cyclin-dependent kinase 9 (Homo sapiens) (UniProt P50750); settings: Compound concentration 1000.0 nM
[54] = biological target: Receptor-type tyrosine-protein kinase FLT3 (Homo sapiens) (UniProt P36888); settings: Compound concentration 1000.0 nM
[55] = biological target: Homeodomain-interacting protein kinase 1 (Homo sapiens) (UniProt Q86Z02); settings: Compound concentration 1000.0 nM
[56] = biological target: Insulin-like growth factor 1 receptor (Homo sapiens) (UniProt P08069); settings: Compound concentration 1000.0 nM
[57] = biological target: Tyrosine-protein kinase JAK1 (Homo sapiens) (UniProt P23458); settings: Compound concentration 1000.0 nM
[58] = biological target: Serine/threonine-protein kinase PAK 2 (Homo sapiens) (UniProt Q13177); settings: Compound concentration 1000.0 nM
[59] = biological target: Cyclin-dependent kinase 18 (Homo sapiens) (UniProt Q07002); settings: Compound concentration 1000.0 nM

Adenosine receptor A3 (Homo sapiens), sequence (P0DMS8 whole entry): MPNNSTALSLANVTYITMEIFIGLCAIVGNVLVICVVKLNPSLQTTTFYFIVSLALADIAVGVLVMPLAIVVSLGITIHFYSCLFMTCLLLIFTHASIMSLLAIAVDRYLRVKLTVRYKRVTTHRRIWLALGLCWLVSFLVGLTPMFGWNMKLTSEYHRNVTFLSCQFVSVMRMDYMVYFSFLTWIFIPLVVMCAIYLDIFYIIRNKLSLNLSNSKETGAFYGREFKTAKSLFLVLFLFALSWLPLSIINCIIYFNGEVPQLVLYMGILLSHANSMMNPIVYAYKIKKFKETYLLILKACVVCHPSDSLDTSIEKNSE
Histone acetyltransferase KAT5 (Homo sapiens), sequence (Q92993 whole entry, looked up): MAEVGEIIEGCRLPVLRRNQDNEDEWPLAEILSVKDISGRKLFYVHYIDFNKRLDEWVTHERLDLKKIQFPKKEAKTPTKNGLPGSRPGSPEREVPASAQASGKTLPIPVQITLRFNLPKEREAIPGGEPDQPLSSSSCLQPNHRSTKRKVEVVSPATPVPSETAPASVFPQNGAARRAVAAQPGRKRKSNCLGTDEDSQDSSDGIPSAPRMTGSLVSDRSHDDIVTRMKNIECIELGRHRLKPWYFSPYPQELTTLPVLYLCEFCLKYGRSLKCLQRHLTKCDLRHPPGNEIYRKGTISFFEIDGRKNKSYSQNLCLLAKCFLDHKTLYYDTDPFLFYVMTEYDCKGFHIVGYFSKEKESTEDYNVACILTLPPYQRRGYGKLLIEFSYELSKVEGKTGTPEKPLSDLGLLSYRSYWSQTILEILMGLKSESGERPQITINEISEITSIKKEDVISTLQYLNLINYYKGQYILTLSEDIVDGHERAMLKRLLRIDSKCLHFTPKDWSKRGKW
Activin receptor type-1 (Homo sapiens), sequence (Q04771 whole entry): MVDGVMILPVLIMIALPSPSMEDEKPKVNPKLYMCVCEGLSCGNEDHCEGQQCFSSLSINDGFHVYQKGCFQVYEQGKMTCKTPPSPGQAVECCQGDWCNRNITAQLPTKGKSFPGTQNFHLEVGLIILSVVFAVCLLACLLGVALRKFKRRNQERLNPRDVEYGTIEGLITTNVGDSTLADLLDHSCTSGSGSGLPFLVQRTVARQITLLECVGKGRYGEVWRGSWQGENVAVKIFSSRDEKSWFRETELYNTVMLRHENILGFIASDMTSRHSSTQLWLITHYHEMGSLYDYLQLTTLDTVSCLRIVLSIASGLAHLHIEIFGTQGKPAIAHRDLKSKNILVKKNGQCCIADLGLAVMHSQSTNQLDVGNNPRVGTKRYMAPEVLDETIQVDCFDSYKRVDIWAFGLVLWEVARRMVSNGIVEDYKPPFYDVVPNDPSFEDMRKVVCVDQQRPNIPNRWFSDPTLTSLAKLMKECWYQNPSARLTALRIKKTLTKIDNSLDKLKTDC
Homeodomain-interacting protein kinase 1 (Homo sapiens), sequence (Q86Z02 whole entry, looked up): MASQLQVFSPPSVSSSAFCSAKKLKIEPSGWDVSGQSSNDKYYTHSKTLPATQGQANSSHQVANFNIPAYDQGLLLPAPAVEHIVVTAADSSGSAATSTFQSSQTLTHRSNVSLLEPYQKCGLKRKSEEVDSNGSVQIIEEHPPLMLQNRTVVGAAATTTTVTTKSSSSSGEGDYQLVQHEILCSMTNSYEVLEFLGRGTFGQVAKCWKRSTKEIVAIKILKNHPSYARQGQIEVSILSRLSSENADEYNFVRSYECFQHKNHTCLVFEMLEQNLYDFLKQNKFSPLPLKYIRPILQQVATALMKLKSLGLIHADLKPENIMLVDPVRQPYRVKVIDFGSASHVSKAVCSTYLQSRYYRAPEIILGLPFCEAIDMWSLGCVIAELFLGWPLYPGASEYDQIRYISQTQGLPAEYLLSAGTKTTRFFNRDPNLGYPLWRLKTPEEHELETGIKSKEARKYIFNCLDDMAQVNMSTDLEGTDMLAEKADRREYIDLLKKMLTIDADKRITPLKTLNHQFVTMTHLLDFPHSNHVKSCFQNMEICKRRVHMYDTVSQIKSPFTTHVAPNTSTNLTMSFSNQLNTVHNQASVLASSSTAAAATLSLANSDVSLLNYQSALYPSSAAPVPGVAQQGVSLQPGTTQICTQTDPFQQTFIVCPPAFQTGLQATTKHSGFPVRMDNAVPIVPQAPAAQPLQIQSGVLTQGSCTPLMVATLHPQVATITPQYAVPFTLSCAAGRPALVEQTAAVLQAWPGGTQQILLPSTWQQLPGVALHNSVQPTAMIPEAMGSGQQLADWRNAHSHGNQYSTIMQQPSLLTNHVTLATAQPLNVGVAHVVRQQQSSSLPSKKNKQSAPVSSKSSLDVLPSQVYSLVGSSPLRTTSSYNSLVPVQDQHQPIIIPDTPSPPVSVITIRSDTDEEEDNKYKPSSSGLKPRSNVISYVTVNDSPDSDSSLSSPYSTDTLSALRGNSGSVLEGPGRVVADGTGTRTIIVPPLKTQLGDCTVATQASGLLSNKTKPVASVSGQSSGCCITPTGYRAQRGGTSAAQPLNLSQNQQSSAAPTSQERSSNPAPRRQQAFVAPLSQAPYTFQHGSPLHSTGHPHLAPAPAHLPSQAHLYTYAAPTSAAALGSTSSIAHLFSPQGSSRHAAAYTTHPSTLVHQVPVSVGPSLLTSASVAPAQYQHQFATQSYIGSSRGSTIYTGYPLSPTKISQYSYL
Histone acetyltransferase KAT2B (Homo sapiens), sequence (Q92831 whole entry, looked up): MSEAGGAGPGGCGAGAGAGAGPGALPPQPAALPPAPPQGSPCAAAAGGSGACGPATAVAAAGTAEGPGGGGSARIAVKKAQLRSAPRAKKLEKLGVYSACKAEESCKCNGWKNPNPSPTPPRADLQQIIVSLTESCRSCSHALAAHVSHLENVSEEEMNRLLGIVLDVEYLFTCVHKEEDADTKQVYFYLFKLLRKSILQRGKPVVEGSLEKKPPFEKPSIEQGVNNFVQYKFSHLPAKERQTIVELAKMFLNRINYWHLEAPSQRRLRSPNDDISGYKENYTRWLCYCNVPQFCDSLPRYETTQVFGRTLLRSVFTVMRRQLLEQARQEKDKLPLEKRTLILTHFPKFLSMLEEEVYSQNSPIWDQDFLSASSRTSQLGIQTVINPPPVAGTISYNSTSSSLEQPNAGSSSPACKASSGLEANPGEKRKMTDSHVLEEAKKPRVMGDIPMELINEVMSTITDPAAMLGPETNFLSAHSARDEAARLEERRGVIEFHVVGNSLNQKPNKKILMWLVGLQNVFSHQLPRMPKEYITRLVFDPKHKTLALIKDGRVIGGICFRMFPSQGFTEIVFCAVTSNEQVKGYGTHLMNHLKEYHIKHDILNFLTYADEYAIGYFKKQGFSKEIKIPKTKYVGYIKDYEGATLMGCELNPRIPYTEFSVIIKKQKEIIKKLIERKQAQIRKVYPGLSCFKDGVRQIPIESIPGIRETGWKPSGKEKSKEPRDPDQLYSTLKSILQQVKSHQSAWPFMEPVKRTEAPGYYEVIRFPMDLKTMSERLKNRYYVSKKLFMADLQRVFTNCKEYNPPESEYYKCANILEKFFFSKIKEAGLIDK
Tyrosine-protein kinase JAK1 (Homo sapiens), sequence (P23458 whole entry): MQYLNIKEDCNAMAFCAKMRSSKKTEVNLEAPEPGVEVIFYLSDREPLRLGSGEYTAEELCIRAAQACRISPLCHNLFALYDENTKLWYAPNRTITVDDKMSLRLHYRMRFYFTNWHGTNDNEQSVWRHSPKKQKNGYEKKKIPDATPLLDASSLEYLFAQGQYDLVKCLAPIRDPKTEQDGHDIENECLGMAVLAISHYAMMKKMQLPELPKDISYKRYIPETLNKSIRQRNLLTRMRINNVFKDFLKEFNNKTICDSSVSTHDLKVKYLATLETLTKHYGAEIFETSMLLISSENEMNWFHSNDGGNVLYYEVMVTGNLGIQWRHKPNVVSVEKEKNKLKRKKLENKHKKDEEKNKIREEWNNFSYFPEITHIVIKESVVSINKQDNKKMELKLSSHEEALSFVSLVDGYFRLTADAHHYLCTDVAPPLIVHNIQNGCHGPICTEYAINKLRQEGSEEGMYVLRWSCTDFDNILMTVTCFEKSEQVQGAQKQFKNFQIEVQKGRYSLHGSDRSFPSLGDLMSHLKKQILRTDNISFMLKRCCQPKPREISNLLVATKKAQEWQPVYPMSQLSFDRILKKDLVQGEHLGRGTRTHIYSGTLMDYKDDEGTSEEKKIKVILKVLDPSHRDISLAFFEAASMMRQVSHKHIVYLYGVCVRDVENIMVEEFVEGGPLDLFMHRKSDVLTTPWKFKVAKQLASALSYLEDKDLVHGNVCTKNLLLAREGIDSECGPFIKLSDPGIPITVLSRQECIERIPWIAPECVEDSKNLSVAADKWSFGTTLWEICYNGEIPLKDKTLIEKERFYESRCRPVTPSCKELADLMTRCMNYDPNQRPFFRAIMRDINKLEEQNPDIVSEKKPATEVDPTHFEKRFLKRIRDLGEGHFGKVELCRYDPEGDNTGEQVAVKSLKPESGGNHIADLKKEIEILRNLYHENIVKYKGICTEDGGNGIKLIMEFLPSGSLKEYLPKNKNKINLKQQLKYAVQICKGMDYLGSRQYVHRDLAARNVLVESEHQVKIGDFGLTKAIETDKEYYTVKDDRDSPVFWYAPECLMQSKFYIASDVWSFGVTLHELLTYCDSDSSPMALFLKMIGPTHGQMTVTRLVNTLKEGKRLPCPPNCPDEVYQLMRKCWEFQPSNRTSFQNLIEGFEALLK
Cyclin-dependent kinase 9 (Homo sapiens), sequence (P50750 whole entry): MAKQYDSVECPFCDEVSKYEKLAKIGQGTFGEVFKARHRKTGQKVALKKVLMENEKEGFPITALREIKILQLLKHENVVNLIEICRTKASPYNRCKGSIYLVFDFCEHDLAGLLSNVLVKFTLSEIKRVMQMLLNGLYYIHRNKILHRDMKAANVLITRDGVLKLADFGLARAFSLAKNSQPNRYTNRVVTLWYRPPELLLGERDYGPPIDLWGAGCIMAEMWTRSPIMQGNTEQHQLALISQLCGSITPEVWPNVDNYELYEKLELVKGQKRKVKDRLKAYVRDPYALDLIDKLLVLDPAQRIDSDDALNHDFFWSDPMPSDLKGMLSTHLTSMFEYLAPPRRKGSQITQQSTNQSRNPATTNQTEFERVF

`CNC(=O)Nc1ccc2c(c1)CC[C@@]21OC(=O)N(CC(=O)N(Cc2ccc(F)cc2)[C@@H](C)C(F)(F)F)C1=O` [A-485] was tested, and the inhibition [1] was 40%, the inhibition [2] was 11% and the inhibition [3] was 1.4%. For the same compound, the inhibition [4] was 1%, the inhibition [5] was -1.9% and the “Cell Proliferation EC50” value [6] was 1.791 µM. The “Cell Proliferation EC50” value [7] was 4.64 µM, the “Cell Proliferation EC50” value [8] was 5.918 µM and the “Cell Proliferation EC50” value [9] was 6.99 µM. For the same compound, the “Cell Proliferation EC50” value [10] was 7.664 µM, the “Cell Proliferation EC50” value [11] was 0.26 µM and the “Cell Proliferation EC50” value [12] was 0.907 µM. The “Cell Proliferation EC50” value [13] was 3.077 µM, the “Cell Proliferation EC50” value [14] was 3.571 µM and the “Cell Proliferation EC50” value [15] was over 10 µM. For the same compound, the “Cell Proliferation EC50” value [16] was 1.5 µM, the “Cell Proliferation EC50” value [17] was over 10 µM and the “Cell Proliferation EC50” value [18] was over 10 µM. The “Cell Proliferation EC50” value [19] was over 10 µM, the “Cell Proliferation EC50” value [20] was over 10 µM and the “Cell Proliferation EC50” value [21] was 0.4989 µM. For the same compound, the “Cell Proliferation EC50” value [22] was over 10 µM, the “Cell Proliferation EC50” value [23] was over 10 µM and the “Cell Proliferation EC50” value [24] was over 10 µM. For the same compound, the “Cell Proliferation EC50” value [25] was over 10 µM, the “Cell Proliferation EC50” value [26] was 3.28 µM and the “Cell Proliferation EC50” value [27] was 0.181 µM. For the same compound, the “Cell Proliferation EC50” value [28] was 0.509 µM, the “Cell Proliferation EC50” value [29] was 1.093 µM and the “Cell Proliferation EC50” value [30] was 0.4875 µM. For the same compound, the “Cell Proliferation EC50” value [31] was 0.5301 µM, the “Cell Proliferation EC50” value [32] was 0.5322 µM and the “Cell Proliferation EC50” value [33] was 0.6622 µM. For the same compound, the “Cell Proliferation EC50” value [34] was 0.7304 µM, the “Cell Proliferation EC50” value [35] was 0.7606 µM and the “Cell Proliferation EC50” value [36] was 0.8586 µM. The “Cell Proliferation EC50” value [37] was 0.934 µM, the “Cell Proliferation EC50” value [38] was 1.689 µM and the “Cell Proliferation EC50” value [39] was 1.813 µM. For the same compound, the “Cell Proliferation EC50” value [40] was 2.46 µM, the “Cell Proliferation EC50” value [41] was over 10 µM and the “Cell Proliferation EC50” value [42] was 0.35 µM. For the same compound, the “Cell Proliferation EC50” value [43] was 1.34 µM, the “Cell Proliferation EC50” value [44] was 2.03 µM and the “Cell Proliferation EC50” value [45] was 4.86 µM. The “Cell Proliferation EC50” value [46] was over 10 µM and the “Cell Proliferation EC50” value [47] was over 10 µM.

Compound `CNC(=O)Nc1ccc2c(c1)[C@@]1(CC2)OC(=O)N(CC(=O)N(Cc2ccc(F)cc2)[C@@H](C)C(F)(F)F)C1=O` [A-486] has an inhibition [48] of 8%, an inhibition [49] of 1% and an inhibition [50] of 0%. The inhibition [51] was -1%, the residual activity [52] was 89% and the residual activity [53] was 91%. The residual activity [54] was 92%, the residual activity [55] was 78% and the residual activity [56] was 100%. For the same compound, the residual activity [57] was 93%, the residual activity [58] was 94% and the residual activity [59] was 100%.
